Source: patent publication US5162571A, “Phenol derivatives, their production and use” (Takeda Chemical Industries, Ltd., priority 1987, dated 1992)

What was measured:
[1] = target: T1, Thromboxane A2 (TXA2) receptor (Oryctolagus cuniculus, UniProt Q6WQI8); experiment: Thromboxane A2 (TXA2) receptor antagonism: inhibitory effect on contraction of rabbit aorta by TXA2-mimics; type: cell-based; details: U-44069 (10^-7 M)-induced contraction
T1 construct: contraction by TXA2 mimics U-44069 or U-46619
T1 sequence (Q6WQI8 1-233): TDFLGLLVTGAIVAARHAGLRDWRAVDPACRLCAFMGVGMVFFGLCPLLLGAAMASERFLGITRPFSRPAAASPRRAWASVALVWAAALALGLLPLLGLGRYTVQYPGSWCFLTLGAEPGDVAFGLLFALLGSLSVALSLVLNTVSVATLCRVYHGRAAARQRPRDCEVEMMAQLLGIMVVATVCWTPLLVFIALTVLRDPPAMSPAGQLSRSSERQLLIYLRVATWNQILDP
Experimental: Thromboxane A2 (TXA2) receptor antagonism
Inhibitory effect on contraction of rabbit aorta by thromboxan A2 (TXA2)-mimics
Method: A spiral strip of the rabbit aorta (2-3 mm wide, about 3 cm long) was suspended in Krebs-Henseleit solution under the load of 2 g. The Krebs-Henseleit solution was saturated with a mixed gas of 95%O2 -5%CO2 and warmed at 37° C. Inhibition of the contraction of the vascular strip caused by a TXA2 mimic substance U-44069^1) (10^-7 M) or U-46619^2) (3×10 ^-8 M), by pretreatment with Compound No. 13 30 minutes before was studied.
1) U-44069: (5Z, 9α, 11α, 13E, 15S)-15-hydroxy-9,11-(epoxymethano)-prosta-5,13-dienoic acid (manufacturedby The Upjohn Company in U.S.A.)
2) U-46619: (5Z, 9α, 11α, […], 15S)-15-hydroxy-11,9-(epoxymethano)-prosta-5,13-dienoic acid (manufacturedby Cayman Chemical Company)
In Table 5, "*" represents addition of U-46619.

[2] = system: U-46619 (TXA2 mimic)-induced broncho-constriction; experiment: Inhibitory effect on U-46619 (TXA2 mimic)-induced broncho-constriction in guinea pig; type: in vivo; details: Cavia porcellus, iv; 0.31 mg/kg i.v., 9 minutes before U-46619; ** p < 0.01
Experimental: Inhibitory effect on U-46619 (TXA2 mimic)-induced broncho-constrictionin guinea pig
Method: Eight male Hartley guinea pigs were used per one group. The guinea pig anesthetized with urethane (1.5 g/kg, i.p.) was fixed in a dorsal position, subjected to tracheotomy and connected to a respirator through a cannula. A side branch of the tracheal cannula was connected to a respirator (Harvard apparatus rodent respirator Type 680) at the rate of 70 strokes/min. and a constant volume of 3 to 5 ml.
Inflation pressure was kept constant at 10 cm H2 O.
After treatment with gallamine triethiodide (1 mg/kg, i.v.), U-46619 (10 μg/Kg) dissolved in a physiological saline solution was given through a carotid cannula and the airway resistance was measured by the overflow technique of Konzett-Rossler method (Konzett, H. and Rossler, R., Naunyn-Schmiedegerg's Arch, Exp. Path. Pharmak., 195, 71-74 (1940). A test compound was suspended in 5% gum arabic solution and was administered orally 1 hour before the treatment with U-46619.
Alternatively, a test compound was dissolved in aqueous 50% dimethylsulfoxide solution and administered interveneously in the dosage of 0.1 ml/100 g body weight 9 minutes before the treatment of U-46619.

[3] = Extension of bleeding time; type: in vivo, rat; details: one hour before
Experimental: Extension of bleeding time
Method: Test compounds were administered orally to rats one hour before the experiments. The rats were anesthetized and the tail was cut at 1.5 mm from the tip. Immediately, the tail was hung down into a physiological saline warmed at 37° C. The time required from initiation to stop of bleeding (bleeding time) was measured.

- inhibition at 10 µM ([1]; 10^-5 M): 100%
- inhibition at 1 µM ([1]; 10^-6 M): 79%
- inhibition at 0.1 µM ([1]; 10^-7 M): 12%
- Bleeding time ([3]; 10 mg/kg oral, control 173 ± 23, * p < 0.05): 272 ± 52 s
- Bleeding time ([3]; 30 mg/kg oral, control 164 ± 27, ** p < 0.01): 258 ± 14 s
Compound: Cc1c(C)c(Br)c(C)c(C(CCCCCC(=O)O)c2ccc(F)cc2)c1O (stereo not drawn) [Compound 12, 7-(5-bromo-2-hydroxy-3,4,6-trimethylphenyl)-7-(4-fluorophenyl)heptanoic acid]
- inhibition in vivo at 0.31 mg/kg [2]: 96%
